Literature values as cited in patent US20100233259A1, “DOSAGE FORM OF ROPINIROLE” (priority 2008, published 2010).

Conditions: in vivo

CCCN(CCC)CCc1cccc2c1CC(=O)N2 [Ropinirole]
half life: 5 to 6 h
